Results taken from patent US8404708B2, “Dual NK1/NK3 receptor antagonists” (Hoffmann-La Roche Inc., priority 2004, dated 2013).

Legend:
[1] = biological target: T1, Recombinant human NK3 (hNK3) receptor (Homo sapiens, UniProt P29371); assay: NK3 receptor binding, [3H]SR142801 displacement, membrane preparations; conditions: second value of the cell pKi NK1/NK3; hNK3 receptor, [3H]SR142801
T1 construct: expressed in transfected cells
T1 sequence (P29371 1-465): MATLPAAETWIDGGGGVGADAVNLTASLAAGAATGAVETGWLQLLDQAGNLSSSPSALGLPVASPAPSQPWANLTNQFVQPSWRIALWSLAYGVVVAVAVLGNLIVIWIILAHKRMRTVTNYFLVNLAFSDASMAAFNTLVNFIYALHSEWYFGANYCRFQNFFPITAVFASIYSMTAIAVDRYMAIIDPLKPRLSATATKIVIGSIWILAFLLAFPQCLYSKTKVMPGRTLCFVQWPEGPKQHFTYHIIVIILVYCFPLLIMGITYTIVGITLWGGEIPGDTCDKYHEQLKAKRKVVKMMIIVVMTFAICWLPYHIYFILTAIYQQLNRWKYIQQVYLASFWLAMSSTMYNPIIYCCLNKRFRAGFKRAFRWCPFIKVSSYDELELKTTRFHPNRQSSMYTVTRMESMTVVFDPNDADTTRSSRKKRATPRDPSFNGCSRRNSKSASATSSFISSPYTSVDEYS
Method in brief: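 Incubation ran 90 min at room temperature in 50 mM Tris-HCl pH 7.4 with 0.1% BSA, 4 mM MnCl2 and 1 μM phosphoramidon, using about 2.5 μg hNK3 membrane protein per well. Nonspecific binding was defined with 10 μM SB222200, and bound radioactivity was collected on PEI-soaked GF/C filters for scintillation counting.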

human NK1 receptor = human NK1 receptor (Homo sapiens, UniProt P25103); assay: NK1 receptor binding, [3H]substance P displacement, CHO cell membranes; conditions: first value of the cell pKi NK1/NK3; human NK1 receptor, [3H]substance P
Sequence of human NK1 receptor (P25103 whole entry): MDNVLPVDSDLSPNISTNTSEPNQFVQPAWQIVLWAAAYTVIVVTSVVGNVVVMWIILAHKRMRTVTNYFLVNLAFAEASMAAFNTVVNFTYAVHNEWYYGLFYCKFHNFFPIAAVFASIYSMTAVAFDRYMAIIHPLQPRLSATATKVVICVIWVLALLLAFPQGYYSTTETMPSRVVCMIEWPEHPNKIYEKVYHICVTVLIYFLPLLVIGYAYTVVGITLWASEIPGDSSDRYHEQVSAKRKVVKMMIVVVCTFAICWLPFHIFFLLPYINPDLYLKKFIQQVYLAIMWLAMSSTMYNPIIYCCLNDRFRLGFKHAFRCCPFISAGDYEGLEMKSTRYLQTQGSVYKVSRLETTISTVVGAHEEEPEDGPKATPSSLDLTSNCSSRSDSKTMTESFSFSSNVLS

CCCCCCN(CCO)c1cc(-c2ccccc2Cl)c(N(C)C(=O)C(C)(C)c2cc(C(F)(F)F)cc(C(F)(F)F)c2)cn1 [Example 148, 2-(3,5-Bis-trifluoromethyl-phenyl)-N-{4-(2-chloro-phenyl)-6-[hexyl-(2-hydroxy-ethyl)-amino]-pyridin-3-yl}-N-methyl-isobutyramide]
Ki [1]: 12 nM | Ki (human NK1 receptor): 2.09 nM

CCCCCN(CCO)c1cc(-c2ccccc2Cl)c(N(C)C(=O)C(C)(C)c2cc(C(F)(F)F)cc(C(F)(F)F)c2)cn1 [Example 149, 2-(3,5-Bis-trifluoromethyl-phenyl)-N-{4-(2-chloro-phenyl)-6-[(2-hydroxy-ethyl)-pentyl-amino]-pyridin-3-yl}-N-methyl-isobutyramide]
Ki [1]: 6.17 nM | Ki (human NK1 receptor): 1.29 nM

CN(C(=O)C(C)(C)c1cc(C(F)(F)F)cc(C(F)(F)F)c1)c1cnc(N(CCO)CCCO)cc1-c1ccccc1Cl [Example 150, 2-(3,5-Bis-trifluoromethyl-phenyl)-N-{4-(2-chloro-phenyl)-6-[(2-hydroxy-ethyl)-(3-hydroxy-propyl)-amino]-pyridin-3-yl}-N-methyl-isobutyramide]
Ki [1]: 0.977 nM | Ki (human NK1 receptor): 1.32 nM

CN(C(=O)C(C)(C)c1cc(C(F)(F)F)cc(C(F)(F)F)c1)c1cnc(N[C@@H]2CCC[C@H]2O)cc1-c1ccccc1Cl [Example 152, (1R,2R)-2-(3,5-Bis-trifluoromethyl-phenyl)-N-[4-(2-chloro-phenyl)-6-(2-hydroxy-cyclopentylamino)-pyridin-3-yl]-N-methyl-isobutyramide]
Ki [1]: 7.76 nM | Ki (human NK1 receptor): 0.759 nM

CN(C(=O)C(C)(C)c1cc(C(F)(F)F)cc(C(F)(F)F)c1)c1cnc(N[C@H]2CCC[C@@H]2O)cc1-c1ccccc1Cl [Example 153, (1S,2S)-2-(3,5-Bis-trifluoromethyl-phenyl)-N-[4-(2-chloro-phenyl)-6-(2-hydroxy-cyclopentylamino)-pyridin-3-yl]-N-methyl-isobutyramide]
Ki [1]: 4.07 nM | Ki (human NK1 receptor): 0.49 nM

Cc1cc(F)ccc1-c1cc(N[C@H]2CCC[C@@H]2O)ncc1N(C)C(=O)C(C)(C)c1cc(C(F)(F)F)cc(C(F)(F)F)c1 [Example 154, (1S,2S)-2-(3,5-Bis-trifluoromethyl-phenyl)-N-[4-(4-fluoro-2-methyl-phenyl)-6-(2-hydroxy-cyclopentylamino)-pyridin-3-yl]-N-methyl-isobutyramide]
Ki [1]: 5.75 nM | Ki (human NK1 receptor): 3.16 nM

Cc1cc(F)ccc1-c1cc(N2CC[C@H](O)[C@H]2CO)ncc1N(C)C(=O)C(C)(C)c1cc(C(F)(F)F)cc(C(F)(F)F)c1 [Example 155, (2R,3S)-2-(3,5-Bis-trifluoromethyl-phenyl)-N-[4-(4-fluoro-2-methyl-phenyl)-6-(3-hydroxy-2-hydroxymethyl-pyrrolidin-1-yl)-pyridin-3-yl]-N-methyl-isobutyramide]
Ki [1]: 0.871 nM | Ki (human NK1 receptor): 1.74 nM

Cc1cc(F)ccc1-c1cc(N2CC[C@@H](O)[C@H]2CO)ncc1N(C)C(=O)C(C)(C)c1cc(C(F)(F)F)cc(C(F)(F)F)c1 [Example 156, (2R,3R)-2-(3,5-Bis-trifluoromethyl-phenyl)-N-[4-(4-fluoro-2-methyl-phenyl)-6-(3-hydroxy-2-hydroxymethyl-pyrrolidin-1-yl)-pyridin-3-yl]-N-methyl-isobutyramide]
Ki [1]: 1.58 nM | Ki (human NK1 receptor): 1.74 nM

Cc1cc(F)ccc1-c1cc(N2CC=C[C@H]2CO)ncc1N(C)C(=O)C(C)(C)c1cc(C(F)(F)F)cc(C(F)(F)F)c1 [Example 157, (S)-2-(3,5-Bis-trifluoromethyl-phenyl)-N-[4-(4-fluoro-2-methyl-phenyl)-6-(2-hydroxymethyl-2,5-dihydro-pyrrol-1-yl)-pyridin-3-yl]-N-methyl-isobutyramide]
Ki [1]: 1.58 nM | Ki (human NK1 receptor): 2.51 nM

Cc1cc(F)ccc1-c1cc(N2C[C@H](O)C[C@H]2CO)ncc1N(C)C(=O)C(C)(C)c1cc(C(F)(F)F)cc(C(F)(F)F)c1 [Example 158, (2S,4R)-2-(3,5-Bis-trifluoromethyl-phenyl)-N-[4-(4-fluoro-2-methyl-phenyl)-6-(4-hydroxy-2-hydroxymethyl-pyrrolidin-1-yl)-pyridin-3-yl]-N-methyl-isobutyramide]
Ki [1]: 0.955 nM | Ki (human NK1 receptor): 1.66 nM

Cc1cc(F)ccc1-c1cc(N2CCC[C@H]2C(C)(C)O)ncc1N(C)C(=O)C(C)(C)c1cc(C(F)(F)F)cc(C(F)(F)F)c1 [Example 159, (S)-2-(3,5-Bis-trifluoromethyl-phenyl)-N-{4-(4-fluoro-2-methyl-phenyl)-6-[2-(1-hydroxy-1-methyl-ethyl)-pyrrolidin-1-yl]-pyridin-3-yl}-N-methyl-isobutyramide]
Ki [1]: 9.55 nM | Ki (human NK1 receptor): 1.78 nM

CN(C(=O)C(C)(C)c1cc(C(F)(F)F)cc(C(F)(F)F)c1)c1cnc(N2CCCC[C@@H]2CO)cc1-c1ccccc1Cl [Example 160, (R)-2-(3,5-Bis-trifluoromethyl-phenyl)-N-[4′-(2-chloro-phenyl)-2-hydroxymethyl-3,4,5,6-tetrahydro-2H-[1,2′]bipyridinyl-5′-yl]-N-methyl-isobutyramide]
Ki [1]: 30.2 nM | Ki (human NK1 receptor): 2.04 nM

CN(C(=O)C(C)(C)c1cc(C(F)(F)F)cc(C(F)(F)F)c1)c1cnc(N2CCCC[C@H]2CO)cc1-c1ccccc1Cl [Example 161, (S)-2-(3,5-Bis-trifluoromethyl-phenyl)-N-[4′-(2-chloro-phenyl)-2-hydroxymethyl-3,4,5,6-tetrahydro-2H-[1,2′]bipyridinyl-5′-yl]-N-methyl-isobutyramide]
Ki [1]: 6.76 nM | Ki (human NK1 receptor): 11.5 nM

Cc1cc(F)ccc1-c1cc(N2CC(O)C2)ncc1N(C)C(=O)C(C)(C)c1cc(C(F)(F)F)cc(C(F)(F)F)c1 [Example 162, 2-(3,5-Bis-trifluoromethyl-phenyl)-N-[4-(4-fluoro-2-methyl-phenyl)-6-(3-hydroxy-azetidin-1-yl)-pyridin-3-yl]-N-methyl-isobutyramide]
Ki [1]: 18.6 nM | Ki (human NK1 receptor): 2.09 nM

Cc1ccccc1-c1cc(N2CC(O)C2)ncc1N(C)C(=O)C(C)(C)c1cc(C(F)(F)F)cc(C(F)(F)F)c1 [Example 163, 2-(3,5-Bis-trifluoromethyl-phenyl)-N-[6-(3-hydroxy-azetidin-1-yl)-4-o-tolyl-pyridin-3-yl]-N-methyl-isobutyramide]
Ki [1]: 28.2 nM | Ki (human NK1 receptor): 1.82 nM

Cc1cc(F)ccc1-c1cc(N2CCNC(=O)CC2)ncc1N(C)C(=O)C(C)(C)c1cc(C(F)(F)F)cc(C(F)(F)F)c1 [Example 164, 2-(3,5-Bis-trifluoromethyl-phenyl)-N-[4-(4-fluoro-2-methyl-phenyl)-6-(5-oxo-[1,4]diazepan-1-yl)-pyridin-3-yl]-N-methyl-isobutyramide]
Ki [1]: 15.8 nM | Ki (human NK1 receptor): 1.62 nM

Cc1cc(F)ccc1-c1cc(N2CCC[C@H]2CO)ncc1N(C)C(=O)C(C)(C)c1cc(C(F)(F)F)cc(C(F)(F)F)c1 [Example 165, (S)-2-(3,5-Bis-trifluoromethyl-phenyl)-N-[4-(4-fluoro-2-methyl-phenyl)-6-(2-hydroxymethyl-pyrrolidin-1-yl)-pyridin-3-yl]-N-methyl-isobutyramide]
Ki [1]: 1.1 nM | Ki (human NK1 receptor): 2.09 nM

Cc1ccc(F)cc1-c1cc(N2CCC[C@H]2CO)ncc1N(C)C(=O)C(C)(C)c1cc(C(F)(F)F)cc(C(F)(F)F)c1 [Example 166, (S)-2-(3,5-Bis-trifluoromethyl-phenyl)-N-[4-(5-fluoro-2-methyl-phenyl)-6-(2-hydroxymethyl-pyrrolidin-1-yl)-pyridin-3-yl]-N-methyl-isobutyramide]
Ki [1]: 1.2 nM | Ki (human NK1 receptor): 3.8 nM

Cc1c(F)cccc1-c1cc(N2CCC[C@H]2CO)ncc1N(C)C(=O)C(C)(C)c1cc(C(F)(F)F)cc(C(F)(F)F)c1 [Example 167, (S)-2-(3,5-Bis-trifluoromethyl-phenyl)-N-[4-(3-fluoro-2-methyl-phenyl)-6-(2-hydroxymethyl-pyrrolidin-1-yl)-pyridin-3-yl]-N-methyl-isobutyramide]
Ki [1]: 0.977 nM | Ki (human NK1 receptor): 4.47 nM

Cc1ccccc1-c1cc(N2CCC[C@@H]2CO)ncc1N(C)C(=O)C(C)(C)c1cc(C(F)(F)F)cc(C(F)(F)F)c1 [Example 168, (R)-2-(3,5-Bis-trifluoromethyl-phenyl)-N-[6-(2-hydroxymethyl-pyrrolidin-1-yl)-4-o-tolyl-pyridin-3-yl]-N-methyl-isobutyramide]
Ki [1]: 10 nM | Ki (human NK1 receptor): 2.09 nM

Cc1cc(F)ccc1-c1cc(N2CCC[C@H]2CN2CCCC2)ncc1N(C)C(=O)C(C)(C)c1cc(C(F)(F)F)cc(C(F)(F)F)c1 [Example 169, (S)-2-(3,5-Bis-trifluoromethyl-phenyl)-N-[4-(4-fluoro-2-methyl-phenyl)-6-(2-pyrrolidin-1-ylmethyl-pyrrolidin-1-yl)-pyridin-3-yl]-N-methyl-isobutyramide]
Ki [1]: 21.4 nM | Ki (human NK1 receptor): 1.41 nM

Cc1ccccc1-c1cc(N2CCC(CO)CC2)ncc1N(C)C(=O)C(C)(C)c1cc(C(F)(F)F)cc(C(F)(F)F)c1 [Example 172, 2-(3,5-Bis-trifluoromethyl-phenyl)-N-(4-hydroxymethyl-4′-o-tolyl-3,4,5,6-tetrahydro-2H-[1,2′]bipyridinyl-5′-yl)-N-methyl-isobutyramide]
Ki [1]: 12.9 nM | Ki (human NK1 receptor): 7.08 nM
